Read-outs that look alike come from different tables or passages of the source.

The values that follow come from patent US20120021117A1, “METHOD FOR PRESERVING DRINKS” (LANXESS DEUTSCHLAND GMBH, priority 2008, published 2012).

The test system of one experiment is Lactobacillus brevis. The experiment in a line: Microbiological colony count determination in inoculated apple juice/water 1:1 after 24 hours. The format is cell-based. The settings on record: Cell inoculum approximately 100 cells/ml; DMDC concentration not given; duplicate.
The nature of experiment [1]: Microbiological keeping time of bottled orange juice drink without sorbate (Example 3). The conditions noted are these: 0.5 l PET bottles, 500 ppm limonene-containing mixture and/or 200 ppm of DMDC, visual and organoleptic inspection. From the text:
The samples were thereafter regularly inspected visually and organoleptically.

The next experiment deals with Saccharomyces cerevisiae. Put plainly: Activity of DMDC, LF and their mixtures in inoculated apple juice drink, cell count after one week. The format is cell-based. The conditions noted are these: inoculum 375 cells/ml.
For experiment [2] the following is noted: orange juice drink with potassium sorbate equivalent to 100 ppm of sorbic acid, 0.5 l PET bottles; 500 ppm limonene-containing mixture and/or 200 ppm of DMDC; visual and organoleptic inspection.
Description: Thereafter the drink was packaged directly on a drinks bottling line (10 000 l/h) into 0.5 l PET bottles.
In this case the limonene-containing mixture was added during final mixing of the drink, whereas for metering DMDC, an electromagnetic metering pump connected upstream of the filler was used.
As comparative experiment, the same drink was packaged non-preserved, or packaged treated only with DMDC or only with limonene.

Description for Lactobacillus brevis: For this a sterilized drink matrix (apple juice/water 1:1) was inoculated with different cell inocula of L. brevis admixed with DMDC or limonene in the stated concentrations, the samples were shaken well and after 24 hours on suitable agar plates the respective cell counts present were determined (in each case in duplicate).
Description for Saccharomyces cerevisiae: The activity of the individual components DMDC and limonene (in a formulation) and the activity of mixtures of DMDC and limonene (in a formulation) was tested against Saccharomyces cerevisiae.
For this, an apple juice drink was inoculated with 375 cells of Saccharomyces cerevisiae per ml and the active ingredient concentrations reported in Table 1 were added. In the table, DMDC is dimethyl dicarbonate, added as such.
LF was added first and then DMDC. Subsequently thereto the mixtures were thoroughly shaken and incubated at 26° C. for one week. The cell count present was then determined.

With `COC(=O)OC(=O)OC` [DMDC, dimethyl dicarbonate], in the experiment with Lactobacillus brevis, the “cell count determination after 24 hours” value is 54/75. The microbiological keeping time entry in experiment [1] is “approximately 20 days”. For the same compound, the “efficacy, defined as freedom from cells (concentration, component alone)” value with Saccharomyces cerevisiae is recorded as “above 150 ppm”.

On to `C/C=C/C=C/C(=O)O` [sorbic acid], for which the microbiological keeping time entry in experiment [2] is “approximately 6 days”.
